From PubChem BioAssay AID248 (DTP/NCI, 2004)
Inconclusive results and toxic doses are left out. Rule as the data show it: active = T/C of 150% or more; inactive = T/C below 125%.

Tested on: L1210 leukemia ip in BDF1 mice, survival T/C
Assay: NCI In Vivo Anticancer Drug Screen. Data for tumor model L1210 Leukemia (intraperitoneal) in B6D2F1 (BDF1) mice
Details: endpoint: mean survival time, higher = longer survival
In short: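 Mice bearing the transplanted tumor received compound or vehicle. Survival of the treated group was divided by that of the vehicle-treated control group to give the ratio.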

[1] = dose: 100.0 mg/kg/injection, schedule: Q04DX002 (ip), vehicle: Klucel (hydroxypropylcellulose) (HPC)
[2] = dose: 200.0 mg/kg/injection, schedule: Q04DX002 (ip), vehicle: Klucel (hydroxypropylcellulose) (HPC)
[3] = dose: 400.0 mg/kg/injection, schedule: Q04DX002 (ip), vehicle: Klucel (hydroxypropylcellulose) (HPC)
[4] = dose: 100.0 mg/kg/injection, schedule: Q04DX003 (ip), vehicle: saline with Tween-80
[5] = dose: 200.0 mg/kg/injection, schedule: Q04DX003 (ip), vehicle: saline with Tween-80
[6] = dose: 400.0 mg/kg/injection, schedule: Q04DX003 (ip), vehicle: saline with Tween-80
[7] = dose: 100.0 mg/kg/injection, schedule: Q01DX009 (ip), vehicle: Klucel (hydroxypropylcellulose) (HPC)
[8] = dose: 200.0 mg/kg/injection, schedule: Q01DX009 (ip), vehicle: Klucel (hydroxypropylcellulose) (HPC)

Measured: T/C

COc1cc(C[C@H]2c3cc(OC)c(OC)cc3CCN2C)c(Oc2cc3c(cc2OC)-c2c(OC)c(OC)cc4c2[C@H](C3)N(C)CC4)cc1OC
inactive: dose: 12.0 mg/kg/injection, schedule: Q01DX005 (ip), vehicle: other 110 % of control | dose: 12.0 mg/kg/injection, schedule: Q01DX009 (ip), vehicle: other 97 % of control | dose: 18.0 mg/kg/injection, schedule: Q04DX003 (ip), vehicle: other 107 % of control | dose: 24.0 mg/kg/injection, schedule: Q01DX005 (ip), vehicle: other 106 % of control | dose: 24.0 mg/kg/injection, schedule: Q01DX009 (ip), vehicle: other 105 % of control | dose: 25.0 mg/kg/injection, schedule: Q01DX009 (ip), vehicle: clinical formulation 103 % of control | dose: 27.0 mg/kg/injection, schedule: Q08DX002 (ip), vehicle: other 103 % of control | dose: 36.0 mg/kg/injection, schedule: Q04DX003 (ip), vehicle: other 103 % of control | dose: 48.0 mg/kg/injection, schedule: Q01DX005 (ip), vehicle: other 110 % of control | dose: 48.0 mg/kg/injection, schedule: Q01DX009 (ip), vehicle: other 108 % of control | dose: 50.0 mg/kg/injection, schedule: Q01DX009 (ip), vehicle: clinical formulation 100 % of control | dose: 54.0 mg/kg/injection, schedule: Q08DX002 (ip), vehicle: other 106 % of control | dose: 72.0 mg/kg/injection, schedule: Q04DX003 (ip), vehicle: other 108 % of control | dose: 80.0 mg/kg/injection, schedule: Q01DX015 (ip), vehicle: carboxymethylcellulose (CMC) 88 % of control | dose: 96.0 mg/kg/injection, schedule: Q01DX005 (ip), vehicle: other 108 % of control | dose: 96.0 mg/kg/injection, schedule: Q01DX009 (ip), vehicle: other 105 % of control | dose: 100.0 mg/kg/injection, schedule: Q01DX009 (ip), vehicle: clinical formulation 102 % of control | [1] 104 % of control | dose: 108.0 mg/kg/injection, schedule: Q08DX002 (ip), vehicle: other 102 % of control | dose: 144.0 mg/kg/injection, schedule: Q04DX003 (ip), vehicle: other 103 % of control | dose: 160.0 mg/kg/injection, schedule: Q01DX015 (ip), vehicle: carboxymethylcellulose (CMC) 93 % of control | dose: 192.0 mg/kg/injection, schedule: Q01DX005 (ip), vehicle: other 105 % of control | dose: 192.0 mg/kg/injection, schedule: Q01DX009 (ip), vehicle: other 101 % of control | [2] 86 % of control | dose: 216.0 mg/kg/injection, schedule: Q08DX002 (ip), vehicle: other 95 % of control | dose: 288.0 mg/kg/injection, schedule: Q04DX003 (ip), vehicle: other 97 % of control | [3] 101 % of control

Cc1ccc(C)[nH]1
inactive: dose: 5.0 mg/kg/injection, schedule: Q01DX009 (ip), vehicle: saline with Tween-80 96 % of control | dose: 5.0 mg/kg/injection, schedule: Q04DX003 (ip), vehicle: saline with Tween-80 93 % of control | dose: 10.0 mg/kg/injection, schedule: Q01DX009 (ip), vehicle: saline with Tween-80 94 % of control | dose: 10.0 mg/kg/injection, schedule: Q04DX003 (ip), vehicle: saline with Tween-80 98 % of control | dose: 20.0 mg/kg/injection, schedule: Q01DX009 (ip), vehicle: saline with Tween-80 100 % of control | dose: 20.0 mg/kg/injection, schedule: Q04DX003 (ip), vehicle: saline with Tween-80 93 % of control

O=C1N(Cl)C2C(N1Cl)N(Cl)C(=O)N2Cl (stereo unspecified)
inactive: dose: 50.0 mg/kg/injection, schedule: Q01DX001 (ip), vehicle: carboxymethylcellulose (CMC) 97 % of control | dose: 100.0 mg/kg/injection, schedule: Q01DX001 (ip), vehicle: carboxymethylcellulose (CMC) 97 % of control

O=C(Nc1ccc(S(=O)(=O)Nc2ncccn2)cc1)c1ccc(C(=O)Nc2ccc(S(=O)(=O)Nc3ncccn3)cc2)cc1
inactive: dose: 50.0 mg/kg/injection, schedule: Q01DX015 (ip), vehicle: methylcellulose (MC) 100 % of control | dose: 100.0 mg/kg/injection, schedule: Q01DX015 (ip), vehicle: methylcellulose (MC) 103 % of control | dose: 200.0 mg/kg/injection, schedule: Q01DX015 (ip), vehicle: methylcellulose (MC) 97 % of control | dose: 400.0 mg/kg/injection, schedule: Q01DX015 (ip), vehicle: methylcellulose (MC) 106 % of control

COC(=O)CC(CC(=O)OC)c1cccc([N+](=O)[O-])c1
inactive: dose: 25.6 mg/kg/injection, schedule: Q04DX002 (ip), vehicle: saline with Tween-80 101 % of control | dose: 64.0 mg/kg/injection, schedule: Q04DX002 (ip), vehicle: saline with Tween-80 101 % of control | [4] 106 % of control | dose: 160.0 mg/kg/injection, schedule: Q04DX002 (ip), vehicle: saline with Tween-80 101 % of control | [5] 101 % of control | dose: 400.0 mg/kg/injection, schedule: Q04DX002 (ip), vehicle: saline with Tween-80 86 % of control | [6] 101 % of control

CC1=[N+]([O-])[N+]([O-])=C(c2ccccc2)C1=O
inactive: [1] 100 % of control | [2] 95 % of control | [3] 87 % of control

CC(=O)OI(OC(C)=O)c1ccc(-c2ccccc2)cc1
inactive: [7] 91 % of control | [8] 102 % of control

CCCCNC(=O)Nc1ccc(OC)cc1
inactive: [7] 103 % of control | dose: 100.0 mg/kg/injection, schedule: Q04DX003 (ip), vehicle: Klucel (hydroxypropylcellulose) (HPC) 96 % of control | [8] 92 % of control | dose: 200.0 mg/kg/injection, schedule: Q04DX003 (ip), vehicle: Klucel (hydroxypropylcellulose) (HPC) 93 % of control | dose: 400.0 mg/kg/injection, schedule: Q01DX009 (ip), vehicle: Klucel (hydroxypropylcellulose) (HPC) 90 % of control | dose: 400.0 mg/kg/injection, schedule: Q04DX003 (ip), vehicle: Klucel (hydroxypropylcellulose) (HPC) 102 % of control

CC(=O)NCCOc1ccc(N)cc1Cl
inactive: dose: 100.0 mg/kg/injection, schedule: Q04DX003 (ip), vehicle: saline 94 % of control | dose: 200.0 mg/kg/injection, schedule: Q04DX003 (ip), vehicle: saline 92 % of control | dose: 400.0 mg/kg/injection, schedule: Q04DX003 (ip), vehicle: saline 91 % of control

O=Cc1cccn1Cc1cc2c(cc1[N+](=O)[O-])OCO2
inactive: dose: 25.0 mg/kg/injection, schedule: Q04DX002 (ip), vehicle: Klucel (hydroxypropylcellulose) (HPC) 101 % of control | dose: 50.0 mg/kg/injection, schedule: Q04DX002 (ip), vehicle: Klucel (hydroxypropylcellulose) (HPC) 101 % of control | [1] 97 % of control

O=CNc1ccccc1
inactive: [4] 96 % of control | [5] 98 % of control | [6] 98 % of control
